± gives the expanded uncertainty stated by the source.
Assay: molar heat capacity at constant pressure
Conditions: 101.33 kPa, Small (less than 1 g) adiabatic calorimetry

CC(C)(C)c1ccc(Oc2ccc([N+](=O)[O-])cc2)cc1 [1-(tert-butyl)-4-(4-nitrophenoxy)benzene]
Conditions | molar heat capacity at constant pressure [J/K/mol]
210.18 K, Glass | 258.75 ± 1.3
210.65 K, Crystal | 255.67 ± 1.3
211.38 K, Glass | 260.08 ± 1.3
211.85 K, Crystal | 257 ± 1.3
212.58 K, Glass | 261.24 ± 1.3
213.05 K, Crystal | 258.5 ± 1.3
213.78 K, Glass | 262.57 ± 1.4
214.26 K, Crystal | 259.91 ± 1.3
214.99 K, Glass | 263.98 ± 1.4
215.46 K, Crystal | 261.07 ± 1.3
216.19 K, Glass | 265.4 ± 1.4
216.66 K, Crystal | 262.4 ± 1.4
217.4 K, Glass | 266.56 ± 1.4
217.87 K, Crystal | 263.65 ± 1.4
218.61 K, Glass | 267.89 ± 1.4
219.07 K, Crystal | 265.56 ± 1.4
220 K, Crystal | 266.48 ± 1.3
220.27 K, Crystal | 266.4 ± 1.4
221.02 K, Glass | 272.13 ± 1.4
221.47 K, Crystal | 268.06 ± 1.4
222.24 K, Glass | 272.71 ± 1.4
222.68 K, Crystal | 269.47 ± 1.4
223.45 K, Glass | 273.71 ± 1.4
223.88 K, Crystal | 270.8 ± 1.4
224.67 K, Glass | 275.46 ± 1.4
225.09 K, Crystal | 272.13 ± 1.4
225.88 K, Glass | 277.37 ± 1.4
226.29 K, Crystal | 273.38 ± 1.4
227.1 K, Glass | 279.45 ± 1.5
227.5 K, Crystal | 274.88 ± 1.4
228.32 K, Glass | 281.53 ± 1.5
228.7 K, Crystal | 276.37 ± 1.4
229.54 K, Glass | 283.61 ± 1.5
229.91 K, Crystal | 277.7 ± 1.4
230 K, Crystal | 277.79 ± 1.5
230.75 K, Glass | 286.52 ± 1.5
231.12 K, Crystal | 278.7 ± 1.4
231.96 K, Glass | 291.09 ± 1.5
232.32 K, Crystal | 280.03 ± 1.5
233.16 K, Glass | 296.83 ± 1.6
233.53 K, Crystal | 281.78 ± 1.5
234.33 K, Metastable liquid | 313.12 ± 1.7
234.74 K, Crystal | 283.36 ± 1.5
235.47 K, Metastable liquid | 327.51 ± 2
235.95 K, Crystal | 284.69 ± 1.5
236.57 K, Metastable liquid | 370.08 ± 2.1
237.15 K, Crystal | 286.77 ± 1.5
237.72 K, Metastable liquid | 379.14 ± 1.9
238.37 K, Crystal | 287.51 ± 1.5
238.92 K, Metastable liquid | 380.05 ± 1.9
239.58 K, Crystal | 289.09 ± 1.5
240 K, Crystal | 289.26 ± 1.5
240.13 K, Metastable liquid | 380.22 ± 1.9
240.79 K, Crystal | 290.51 ± 1.5
241.35 K, Metastable liquid | 381.3 ± 1.9
242 K, Crystal | 291.5 ± 1.5
242.56 K, Metastable liquid | 382.3 ± 2
243.21 K, Crystal | 292.84 ± 1.5
243.77 K, Metastable liquid | 383.46 ± 2
244.43 K, Crystal | 294.58 ± 1.5
244.99 K, Metastable liquid | 384.21 ± 2
245.64 K, Crystal | 295.99 ± 1.5
246.85 K, Crystal | 297.24 ± 1.6
248.06 K, Crystal | 298.57 ± 1.6
249.28 K, Crystal | 300.07 ± 1.6
250 K, Crystal | 300.9 ± 1.5
250.5 K, Crystal | 301.73 ± 1.6
251.71 K, Crystal | 302.73 ± 1.6
252.92 K, Crystal | 304.39 ± 1.6
254.14 K, Crystal | 305.89 ± 1.6
255.35 K, Crystal | 307.72 ± 1.6
256.57 K, Crystal | 309.05 ± 1.6
257.78 K, Crystal | 310.55 ± 1.6
259 K, Crystal | 311.96 ± 1.6
260 K, Crystal | 312.62 ± 1.7
260.22 K, Crystal | 313.46 ± 1.7
261.44 K, Crystal | 315.12 ± 1.7
